In PubChem BioAssay AID192 (DTP/NCI, 2004):
Where “and” joins values, the source holds several entries; their conditions need not be identical. Equal values may be shown once. Toxic doses and inconclusive results are not listed.

Tested on: BDF1 mice, B16 melanoma ip, median survival T/C
Test: NCI In Vivo Anticancer Drug Screen. Data for tumor model B16 Melanoma (intraperitoneal) in B6D2F1 (BDF1) mice
Conditions: endpoint: median survival time, higher = longer survival
Procedure, shortened: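 Compounds were tested in mice carrying transplantable tumors. Survival or tumor size was recorded, and each value is the treated-group measurement (T) divided by that of the vehicle-treated control group (C).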

[1] = dose: 12.5 mg/kg/injection, schedule: Q01DX009 (ip), vehicle: saline with Tween-80
[2] = dose: 25.0 mg/kg/injection, schedule: Q01DX009 (ip), vehicle: saline with Tween-80
[3] = dose: 50.0 mg/kg/injection, schedule: Q01DX009 (ip), vehicle: saline with Tween-80
[4] = dose: 100.0 mg/kg/injection, schedule: Q01DX009 (ip), vehicle: saline with Tween-80
[5] = dose: 200.0 mg/kg/injection, schedule: Q01DX009 (ip), vehicle: saline with Tween-80
[6] = dose: 100.0 mg/kg/injection, schedule: Q04DX003 (ip), vehicle: saline
[7] = dose: 200.0 mg/kg/injection, schedule: Q04DX003 (ip), vehicle: saline
[8] = dose: 400.0 mg/kg/injection, schedule: Q01DX009 (ip), vehicle: Klucel (hydroxypropylcellulose) (HPC)
[9] = dose: 100.0 mg/kg/injection, schedule: Q01DX009 (ip), vehicle: Klucel (hydroxypropylcellulose) (HPC)
[10] = dose: 200.0 mg/kg/injection, schedule: Q01DX009 (ip), vehicle: Klucel (hydroxypropylcellulose) (HPC)
[11] = dose: 25.0 mg/kg/injection, schedule: Q01DX009 (ip), vehicle: Klucel (hydroxypropylcellulose) (HPC)
[12] = dose: 50.0 mg/kg/injection, schedule: Q01DX009 (ip), vehicle: Klucel (hydroxypropylcellulose) (HPC)
[13] = dose: 6.25 mg/kg/injection, schedule: Q01DX009 (ip), vehicle: saline with Tween-80

For `O=C(O)CP(=O)(O)O`, the T/C (dose: 4.0 mg/kg/injection, schedule: Q01DX009 (ip), vehicle: saline) was 109 % of control, the T/C (dose: 8.0 mg/kg/injection, schedule: Q01DX009 (ip), vehicle: saline) was 104 % of control and the T/C (dose: 16.0 mg/kg/injection, schedule: Q01DX009 (ip), vehicle: saline) was 102 % of control. The T/C (dose: 32.0 mg/kg/injection, schedule: Q01DX009 (ip), vehicle: saline) was 101 % of control, the T/C (dose: 50.0 mg/kg/injection, schedule: Q01DX009 (ip), vehicle: saline) was 103 % of control and the T/C (dose: 64.0 mg/kg/injection, schedule: Q01DX009 (ip), vehicle: saline) was 102 % of control. The T/C (dose: 100.0 mg/kg/injection, schedule: Q01DX009 (ip), vehicle: saline) was 120 % of control, the T/C (dose: 200.0 mg/kg/injection, schedule: Q01DX009 (ip), vehicle: saline) was 154 % of control and the T/C (dose: 400.0 mg/kg/injection, schedule: Q01DX009 (ip), vehicle: saline) was 194 % of control. The T/C (dose: 800.0 mg/kg/injection, schedule: Q01DX009 (ip), vehicle: saline) was 211 % of control.
`O=C1NC(=O)/C(=C/C=C/c2ccccc2)S1` was tested, and the T/C [1] was 99 % of control and 114 % of control, the T/C [2] was 97 % of control and 115 % of control and the T/C [3] was 99 % of control and 103 % of control. The T/C [4] was 99 % of control and 108 % of control, the T/C [5] was 114 % of control and the T/C (dose: 400.0 mg/kg/injection, schedule: Q01DX009 (ip), vehicle: saline with Tween-80) was 98 % of control.
For `O=CN(O)CC(=O)O`, the T/C [6] was 97 % of control, the T/C [7] was 100 % of control and the T/C (dose: 400.0 mg/kg/injection, schedule: Q04DX003 (ip), vehicle: saline) was 100 % of control.
For `CSc1nc2cc(C)c(C)cc2[nH]1`, the T/C [2] was 100 % of control, the T/C [3] was 97 % of control and the T/C [4] was 97 % of control and 102 % of control.
In the case of `CC12CCC(O)CC1CCC1C2CCC2(C)C(c3ccc(=O)oc3)C(O)C3OC132` (centres undefined), the T/C (dose: 0.94 mg/kg/injection, schedule: Q01DX009 (ip), vehicle: Klucel (hydroxypropylcellulose) (HPC)) is reported as 103 % of control, the T/C (dose: 1.87 mg/kg/injection, schedule: Q01DX009 (ip), vehicle: Klucel (hydroxypropylcellulose) (HPC)) is reported as 98 % of control and the T/C (dose: 3.5 mg/kg/injection, schedule: Q01DX009 (ip), vehicle: Klucel (hydroxypropylcellulose) (HPC)) is reported as 94 % of control.
For `CN(C)/C=C(/C#N)C(=O)N1CCCC1`, the T/C (dose: 37.5 mg/kg/injection, schedule: Q04DX003 (ip), vehicle: saline) was 95 % of control, the T/C (dose: 75.0 mg/kg/injection, schedule: Q04DX003 (ip), vehicle: saline) was 88 % of control and the T/C (dose: 150.0 mg/kg/injection, schedule: Q04DX003 (ip), vehicle: saline) was 100 % of control.
For `CCCC[P+](CCCC)(CCCC)C(C)C`, the T/C [1] was 106 % of control and the T/C [2] was 104 % of control.
In the case of `C1CC2(CCN1)SSC1(CCNCC1)S2`, the T/C [6] is reported as 100 % of control and the T/C [7] is reported as 100 % of control.
`CN1C(=O)C(=Cc2ccc(O)cc2)C(=O)N(C)C1=O` was tested, and the T/C [1] was 101 % of control and the T/C [2] was 97 % of control.
In the case of `CC(NC(=O)C(F)(F)F)C(=O)O` (centres undefined), the T/C [6] is reported as 100 % of control and the T/C [7] is reported as 86 % of control.
In the case of `CC/C(=C\c1cccc([N+](=O)[O-])c1)C(=O)O`, the T/C (dose: 100.0 mg/kg/injection, schedule: Q04DX003 (ip), vehicle: Klucel (hydroxypropylcellulose) (HPC)) is reported as 94 % of control, the T/C (dose: 200.0 mg/kg/injection, schedule: Q04DX003 (ip), vehicle: Klucel (hydroxypropylcellulose) (HPC)) is reported as 94 % of control and the T/C (dose: 400.0 mg/kg/injection, schedule: Q04DX003 (ip), vehicle: Klucel (hydroxypropylcellulose) (HPC)) is reported as 91 % of control.
In the case of `O=C=Nc1ccc(Cc2ccc(N=C=O)cc2)cc1`, the T/C [8] is reported as 123 % of control.
With `O=C(Nc1cc(C(F)(F)F)ccc1Cl)c1ccccc1` the T/C [9] was 94 % of control, the T/C [10] was 91 % of control and the T/C [8] was 94 % of control.
With `CNc1nc(N)nc(Nc2ccc(I)cc2)c1N=O` the T/C [11] was 99 % of control, the T/C [12] was 90 % of control and the T/C [3] was 94 % of control. The T/C [9] was 96 % of control, the T/C [4] was 94 % of control and the T/C [5] was 94 % of control. The T/C [8] was 123 % of control.
With `CN(C)CCCN=Cc1ccc(O)cc1O.CN(C)CCCN=Cc1ccc(O)cc1O.[Ni+2]` the T/C [13] was 95 % of control, the T/C [1] was 95 % of control and the T/C (dose: 12.5 mg/kg/injection, schedule: Q04DX003 (ip), vehicle: saline with Tween-80) was 117 % of control. The T/C [2] was 92 % of control and the T/C (dose: 25.0 mg/kg/injection, schedule: Q04DX003 (ip), vehicle: saline with Tween-80) was 86 % of control.
`O=S(=O)(SC(S(=O)(=O)c1ccccc1)S(=O)(=O)c1ccccc1)c1ccccc1` was tested, and the T/C (dose: 12.5 mg/kg/injection, schedule: Q01DX009 (ip), vehicle: Klucel (hydroxypropylcellulose) (HPC)) was 99 % of control, the T/C [11] was 99 % of control and the T/C [12] was 105 % of control. The T/C [9] was 107 % of control and the T/C [10] was 90 % of control.
In the case of `O=C(NC(CSCc1ccccc1)C(=O)Oc1ccc([N+](=O)[O-])cc1)OCc1ccccc1` (centres undefined), the T/C (dose: 25.0 mg/kg/injection, schedule: Q01DX009 (ip), vehicle: gum acacia) is reported as 97 % of control.
With `CC[C@]1(O)C[C@H](OC2CC(N(C)C)C(OC3CC(O)C(O)C(C)O3)C(C)O2)c2c(cc3c(c2O)C(=O)c2c(O)ccc(O)c2C3=O)[C@H]1C(=O)OC` (some centres undefined) the T/C (dose: 0.2 mg/kg/injection, schedule: Q01DX009 (ip), vehicle: carboxymethylcellulose (CMC)) was 113 % of control, the T/C (dose: 0.25 mg/kg/injection, schedule: Q01DX009 (ip), vehicle: saline with Tween-80) was 120 % of control and the T/C (dose: 0.4 mg/kg/injection, schedule: Q01DX009 (ip), vehicle: carboxymethylcellulose (CMC)) was 94 % of control. The T/C (dose: 1.0 mg/kg/injection, schedule: Q01DX009 (ip), vehicle: saline with Tween-80) was 159 % of control and the T/C (dose: 2.0 mg/kg/injection, schedule: Q01DX009 (ip), vehicle: saline with Tween-80) was 179 % of control.
In the case of `CC[C@H]1CN2CCc3cc(OC)c(OC)cc3[C@@H]2C[C@@H]1C[C@H]1NCCc2cc(O)c(OC)cc21`, the T/C (dose: 2.0 mg/kg/injection, schedule: Q01DX009 (ip), vehicle: saline + alcohol) is reported as 118 % of control, the T/C (dose: 2.0 mg/kg/injection, schedule: Q01DX009 (ip), vehicle: saline) is reported as 108 % of control and 120 % of control and the T/C (dose: 8.0 mg/kg/injection, schedule: Q01DX009 (ip), vehicle: saline + alcohol) is reported as 113 % of control. The T/C (dose: 8.0 mg/kg/injection, schedule: Q04DX003 (ip), vehicle: alkali diluted with saline) was 117 % of control, the T/C (dose: 16.0 mg/kg/injection, schedule: Q04DX003 (ip), vehicle: alkali diluted with saline) was 108 % of control and the T/C (dose: 32.0 mg/kg/injection, schedule: Q04DX003 (ip), vehicle: alkali diluted with saline) was 122 % of control.
For `C/C(=C\C(=O)Nc1ncn[nH]1)Nc1ncn[nH]1`, the T/C [12] was 106 % of control, the T/C [9] was 102 % of control and the T/C [10] was 90 % of control. The T/C [8] was 101 % of control.
In the case of `CCOC(=O)/N=[N+](\[O-])c1ccccc1`, the T/C (dose: 3.12 mg/kg/injection, schedule: Q01DX009 (ip), vehicle: saline with Tween-80) is reported as 97 % of control, the T/C [13] is reported as 100 % of control and the T/C [1] is reported as 105 % of control. The T/C [2] was 104 % of control.
`CCOC(=N)c1cn(C2OC(CO)C(O)C2O)c2ncnc(N)c12` (centres undefined) was tested, and the T/C (dose: 0.25 mg/kg/injection, schedule: Q01DX009 (ip), vehicle: saline) was 100 % of control and the T/C (dose: 0.5 mg/kg/injection, schedule: Q01DX009 (ip), vehicle: saline) was 105 % of control.
In the case of `CCCCCCCCCCCC(=O)NC1CC(O[C@H]2C[C@](O)(C(=O)CO)Cc3c(O)c4c(c(O)c32)C(=O)c2c(OC)cccc2C4=O)OC(C)C1O` (some centres undefined), the T/C (dose: 12.5 mg/kg/injection, schedule: Q01DX001 (ip), vehicle: distilled water + Tween-80) is reported as 119 % of control, the T/C (dose: 12.5 mg/kg/injection, schedule: Q01DX001 (ip), vehicle: water) is reported as 195 % of control and the T/C (dose: 25.0 mg/kg/injection, schedule: Q01DX001 (ip), vehicle: distilled water + Tween-80) is reported as 189 % of control. The T/C (dose: 25.0 mg/kg/injection, schedule: Q01DX001 (ip), vehicle: water) was 233 % of control, the T/C (dose: 50.0 mg/kg/injection, schedule: Q01DX001 (ip), vehicle: distilled water + Tween-80) was 195 % of control and the T/C (dose: 50.0 mg/kg/injection, schedule: Q01DX001 (ip), vehicle: water) was 257 % of control. For the same compound, the T/C (dose: 100.0 mg/kg/injection, schedule: Q01DX001 (ip), vehicle: distilled water + Tween-80) was 258 % of control, the T/C (dose: 100.0 mg/kg/injection, schedule: Q01DX001 (ip), vehicle: water) was 325 % of control and the T/C (dose: 200.0 mg/kg/injection, schedule: Q01DX001 (ip), vehicle: distilled water + Tween-80) was 215 % of control. The T/C (dose: 200.0 mg/kg/injection, schedule: Q01DX001 (ip), vehicle: water) was 104 % of control, the T/C (dose: 400.0 mg/kg/injection, schedule: Q01DX001 (ip), vehicle: distilled water + Tween-80) was 231 % of control and the T/C (dose: 400.0 mg/kg/injection, schedule: Q01DX001 (ip), vehicle: water) was 102 % of control.
